Where “and” joins values, the source holds several entries; their conditions need not be identical. Equal values may be shown once.
Assays:
11-beta-HSD1 = target: T1, 11-beta-HSD1 (Homo sapiens, UniProt P28845); assay: Inhibitory activity of 11-beta-HSD1 in the microsomal fraction of transfected HEK293 cells (SPA, [3H]-cortisone); type: biochemical; settings: microsomes of HEK-293 cells transfected with 11-beta-HSD1
T1 construct: expressed in transfected cells; host or cells: HEK-293 cells, stably transfected; microsome preparation
Protocol: Determination of the Inhibitory Activity of 11-Beta-HSD1 in the Microsomal Fraction of Transfected HEK293 Cells
99 μL of a reaction mixture which contained 80 nM [^3H]-cortisone, 1 mM NADPH and 40 μg/mL of the microsome preparations of HEK-293 cells stably transfected with the 11-beta-HSD1 clone, dissolved in assay buffer (50 mM HEPES, 100 mM KCl, 5 mM NaCl, 2 mM MgCl2/100 mL H2O) were added to a 96-well plate. The inhibitors to be analyzed were dissolved in 100% DMSO, and the final concentration in the reaction was 1%.
The reaction mixture was incubated for 2 hours at 37° C. under stirring. The total reaction volume per well was 100 μL. The stop solution (5 mg/mL ProteinA Spa bead, Superblock Blocking Buffer, 30 μM glycyrrhetinic acid, 1 μg/mL anticortisol monoclonal antibody) was simultaneously prepared, being incubated under stirring for two hours at rt and protected from light. Once the two hours lapsed, 50 μL of the stop solution were dispensed to each well in the reaction plate and was left to incubate for two hours at rt under stirring and protected from light. Once the second incubation ended, the plate was read in a 1450 Microbeta Tritalux (Wallac®) scintillation counter for 30 seconds per well.

11-beta-HSD2 = target: T2, 11-beta-HSD2 (Homo sapiens, UniProt P80365); assay: Inhibitory activity of 11-beta-HSD2 in the microsomal fraction of transfected HEK293 cells (SPA, [3H]-cortisol); type: biochemical; settings: for inhibition at 10 µM: microsomes of HEK-293 cells transfected with 11-beta-HSD2
T2 construct: expressed in transfected cells; host or cells: HEK-293 cells, stably transfected; microsome preparation
T2 sequence (P80365 1-405): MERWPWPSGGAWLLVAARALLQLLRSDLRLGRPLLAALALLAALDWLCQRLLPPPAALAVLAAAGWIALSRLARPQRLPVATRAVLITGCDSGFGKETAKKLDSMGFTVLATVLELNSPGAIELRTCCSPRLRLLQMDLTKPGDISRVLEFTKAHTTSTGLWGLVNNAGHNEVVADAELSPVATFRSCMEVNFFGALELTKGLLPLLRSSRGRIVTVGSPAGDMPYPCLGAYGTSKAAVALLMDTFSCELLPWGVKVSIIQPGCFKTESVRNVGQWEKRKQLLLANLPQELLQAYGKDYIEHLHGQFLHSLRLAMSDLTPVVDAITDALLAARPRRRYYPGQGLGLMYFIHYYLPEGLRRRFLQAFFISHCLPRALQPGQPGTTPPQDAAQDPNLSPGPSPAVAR
Protocol: Determination of the Inhibitory Activity of 11-Beta-HSD2 in the Microsomal Fraction of Transfected HEK293 Cells
59 μL of the reaction mixture were added to a 96-well plate. This contained 1 mM NAD^+ and 80 μg/mL of the microsome preparations of HEK-293 cells stably transfected with the 11-beta-HSD2 clone, dissolved in assay buffer (50 mM HEPES, 100 mM KCl, 5 mM NaCl, 2 mM MgCl2/100 mL H2O). The inhibitors to be analyzed were dissolved in 100% DMSO, and the final concentration in the reaction was 1%. The reaction mixture was pre-incubated for 30 minutes at 37° C. under stirring. 40 μL of the reaction substrate, 3.2 nM [^3H]-cortisol dissolved in assay buffer were added. It was incubated at 37° C. for two hours under stirring. The stop solution was simultaneously prepared, being incubated for two hours at rt and protected from light. After this time 50 μL of the stop solution were added to end the reaction, and it was incubated for two hours at rt under stirring and protected from light. The signal emitted by SPA beads-cortisol complex was measured in the 1450 Microbeta Tritalux (Wallac®) scintillation counter for 30 seconds per well. This case measures the binding to the substrate, and not to the product as in the assay for the type 1 isoenzyme.

[1] = Acute glaucoma model: glucose-induced ocular hypertension in rabbit (IOP); type: in vivo, Chinchilla Bastard rabbits; settings: for Glucose-induced Hypertension Ratio Inhibitor/Timolol: 0.5% suspension versus Timolol maleate solution 0.5%; for Glucose-induced Hypertension % Inhibition: eye instillation of 0.5% suspension 15 minutes before 5% glucose bolus 20 ml/kg
Protocol: In Vivo Efficacy of 11beta-HSD1 Inhibitors
In vivo efficacy of 11beta-HSD1 inhibitors was evaluated in an acute glaucoma model based on a glucose-induced ocular hypertension model in rabbit.
Male Chinchilla Bastard rabbits (1.5-2.5 kg) were obtained from Charles River (Germany) and were kept under controlled environmental conditions (12-hour light/12-hour dark cycle) with food and drinking water ad libitum. Animals were treated in accordance with the ARVO Statement for the Use of Animals in Ophthalmic and Vision Research.
In order to measure intraocular pressure (IOP) according to the glucose-induced ocular hypertension model, rabbits were restrained and basal IOP was determined using a Tonolab tonometer (Tiolat Oy) at least 1 hour after initial immobilization. Acute ocular hypertension was induced by a bolus of 5% glucose solution at 20 ml/kg into the marginal ear vein and IOP was determined 5, 10, 20, 30 and 40 minutes later. Eye treatment instillation was performed 15 minutes before the hypertension induction and both eyes of each animal were instilled with the same solution, either the vehicle, the 11beta-HSD1 inhibitor suspension at 0.5% or Timolol maleate solution at 0.5% as a positive control.

T1 sequence (P28845 whole entry): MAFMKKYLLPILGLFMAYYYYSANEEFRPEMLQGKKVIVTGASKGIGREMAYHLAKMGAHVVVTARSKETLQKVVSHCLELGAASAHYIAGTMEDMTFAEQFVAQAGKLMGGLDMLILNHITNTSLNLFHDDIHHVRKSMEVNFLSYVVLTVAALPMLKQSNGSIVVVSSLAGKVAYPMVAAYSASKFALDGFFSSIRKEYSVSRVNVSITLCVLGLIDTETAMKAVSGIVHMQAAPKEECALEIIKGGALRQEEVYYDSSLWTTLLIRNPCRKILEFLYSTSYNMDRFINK

Row | Structure (SMILES) | inhibition at 10 µM (11-beta-HSD1) | inhibition at 10 µM (11-beta-HSD2) | Glucose-induced Hypertension Ratio Inhibitor/Timolol [1] | Glucose-induced Hypertension % Inhibition [1] | % Inhibition (10 μM) 11-beta-HSD2 (11-beta-HSD2; microsomes of HEK-293 cells transfected with 11-beta-HSD2, 10 µM)
1 | O=C(CCCC(=O)N1CCCC2CCCCC21)NCCc1ccccc1 (centres unmarked) [Ia.59, 5-(octahydroquinolin-1-yl)-5-oxopentanoic acid phenethylamide] | 100% | 0% |  |  | 
2 | O=C(CCCC(=O)N1CCCC2CCCCC21)NCc1ccccc1 (centres unmarked) [Ia.61, 5-(octahydroquinolin-1-yl)-5-oxopentanoic acid benzylamide] | 93% | 0% |  |  | 
3 | CN(Cc1cccc2ccccc12)C(=O)CCCC(=O)N1CCCC2CCCCC21 (centres unmarked) [Ia.66, 5-(octahydroquinolin-1-yl)-5-oxopentanoic acid methylnaphthalen-1-ylmethylamide] | 100% | 6% |  |  | 
4 | O=C(CCCCC(=O)N1CCCC2CCCCC21)NC1C2CC3CC(C2)CC1C3 (centres unmarked) [Ia.96, 6-(octahydroquinolin-1-yl)-6-oxohexanoic acid tricyclo[3.3.1.1^3,7]decan-2-ylamide] |  |  | 0.84 | 46% | 
5 | O=C(CCCC(=O)N1CCCC2CCCCC21)NCCc1cccc(F)c1 (centres unmarked) [Ia.198, 5-(octahydroquinolin-1-yl)-5-oxopentanoic acid N-(3-fluorophenethyl)amide] |  |  | 0.65 | 41% | 
6 | O=C(CCCC(=O)N1CCCC2CCCCC21)NC1CCCc2ccccc21 (centres unmarked) [Ia.224, 5-(octahydroquinolin-1-yl)-5-oxopentanoic acid N-(1,2,3,4-tetrahydronaphthalen-1-yl)amide] |  |  | 0.25 | 16% | 
7 | CN(Cc1cccc2ccccc12)C(=O)CCCNC(=O)N1CCCC2CCCCC21 (centres unmarked) [Ib.8, Octahydroquinoline-1-carboxylic acid [3-(methylnaphthalen-1-ylmethylcarbamoyl)propyl]amide] | 100% |  |  |  | 0% and 5%
8 | O=C(CCCNC(=O)N1CCCC2CCCCC21)N1CCC2CCCCC2C1 (centres unmarked) [Ib.18, Octahydroquinoline-1-carboxylic acid [4-(octahydroisoquinolin-2-yl)-4-oxobutyl]amide] | 100% | 10% |  |  | 
9 | CN(Cc1cccc2ccccc12)C(=O)CCCNC(=O)N1CCC2CCCCC2C1 (centres unmarked) [Ib.80, Octahydroisoquinoline-2-carboxylic acid [3-(methylnaphthalen-1-ylmethylcarbamoyl)propyl]amide] | 100% | 13% |  |  | 
10 | O=C(NCCC(=O)N1CCCC2CCCCC21)c1cc2ccccc2cn1 (centres unmarked) [Id.6, Isoquinoline-3-carboxylic acid [3-(octahydroquinolin-1-yl)-3-oxopropyl]amide] | 100% | 0% |  |  | 
11 | O=C(NCCC(=O)N1CCCC2CCCCC21)c1ccc2ccccc2n1 (centres unmarked) [Id.12, Quinoline-2-carboxylic acid[3-(octahydroquinolin-1-yl)-3-oxopropyl]amide] | 100% | 0% | 0.87 | 50% | 
12 | O=C1c2ccccc2C(=O)N1CCCCC(=O)N1CCCC2CCCCC21 (centres unmarked) [If.1, 2-(5-(octahydroquinolin-1-yl)-5-oxopentyl)isoindoline-1,3-dione] | 100% | 0% | 0.90 | 51% | 
13 | O=C(CCCCN1C(=O)c2ccccc2C1=O)N1CCC2CCCCC2C1 (centres unmarked) [If.8, 2-(5-(octahydroisoquinolin-2-yl)-5-oxopentyl) isoindoline-1,3-dione] | 100% | 4% |  |  | 
14 | O=C1c2ccc(F)cc2C(=O)N1CCCCC(=O)N1CCCC2CCCCC21 (centres unmarked) [Ik.25, 5-fluoro-2-[5-(octahydroquinolin-1-yl)-5-oxopentyl]isoindole-1,3-dione] | 100% | 6% |  |  | 

— patent US8822452B2, “Inhibitor compounds of 11-beta-hydroxysteroid dehydrogenase type 1” (Laboratorios Salvat, S.A., priority 2009, dated 2014)
